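A five-concentration, 48-hour dose response in 96-well plates underlies each endpoint, interpolated linearly between surrounding concentrations. At the TGI there is no net growth.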
Key:
Assay in all cases: inhibition of tumour cell growth, NCI panel, 48 h
786-0 renal = test system: 786-0 renal
A498 renal = test system: A498 renal
A549 NSCLC = test system: A549 NSCLC
ACHN renal = test system: ACHN renal
CAKI-1 renal = test system: CAKI-1 renal
CCRF-CEM leukemia = test system: CCRF-CEM leukemia
COLO 205 colon = test system: COLO 205 colon
DLD-1 colon = test system: DLD-1 colon
DMS 273 small cell lung = test system: DMS 273 small cell lung
EKVX NSCLC = test system: EKVX NSCLC
HCC-2998 colon = test system: HCC-2998 colon
HCT-116 colon = test system: HCT-116 colon
HCT-15 colon = test system: HCT-15 colon
HL-60(TB) leukemia = test system: HL-60(TB) leukemia
HOP-18 NSCLC = test system: HOP-18 NSCLC
HOP-62 NSCLC = test system: HOP-62 NSCLC
HOP-92 NSCLC = test system: HOP-92 NSCLC
HT29 colon = test system: HT29 colon
IGROV1 ovarian = test system: IGROV1 ovarian
KM12 colon = test system: KM12 colon
KM20L2 colon = test system: KM20L2 colon
LOX IMVI melanoma = test system: LOX IMVI melanoma
LXFL 529 NSCLC = test system: LXFL 529 NSCLC
M14 melanoma = test system: M14 melanoma
M19-MEL melanoma = test system: M19-MEL melanoma
MALME-3M melanoma = test system: MALME-3M melanoma
MOLT-4 leukemia = test system: MOLT-4 leukemia
NCI-H226 lung = test system: NCI-H226 lung
NCI-H460 lung = test system: NCI-H460 lung
NCI-H522 lung = test system: NCI-H522 lung
OVCAR-3 ovarian = test system: OVCAR-3 ovarian
OVCAR-4 ovarian = test system: OVCAR-4 ovarian
OVCAR-5 ovarian = test system: OVCAR-5 ovarian
OVCAR-8 ovarian = test system: OVCAR-8 ovarian
RPMI-8226 leukemia = test system: RPMI-8226 leukemia
RXF 393 renal = test system: RXF 393 renal
SF-268 CNS = test system: SF-268 CNS
SF-295 CNS = test system: SF-295 CNS
SF-539 CNS = test system: SF-539 CNS
SK-MEL-28 melanoma = test system: SK-MEL-28 melanoma
SK-MEL-5 melanoma = test system: SK-MEL-5 melanoma
SK-OV-3 ovarian = test system: SK-OV-3 ovarian
SN12C renal = test system: SN12C renal
SNB-19 CNS = test system: SNB-19 CNS
SNB-75 CNS = test system: SNB-75 CNS
SNB-78 CNS = test system: SNB-78 CNS
SR leukemia = test system: SR leukemia
SW-620 colon = test system: SW-620 colon
TK-10 renal = test system: TK-10 renal
U251 CNS = test system: U251 CNS
UACC-257 melanoma = test system: UACC-257 melanoma
UACC-62 melanoma = test system: UACC-62 melanoma
UO-31 renal = test system: UO-31 renal
BT-549 breast = test system: BT-549 breast
DMS 114 small cell lung = test system: DMS 114 small cell lung
DU-145 prostate = test system: DU-145 prostate
HS 578T breast = test system: HS 578T breast
K-562 leukemia = test system: K-562 leukemia
MCF7 breast = test system: MCF7 breast
MDA-MB-231 breast = test system: MDA-MB-231 breast
MDA-MB-435 = test system: MDA-MB-435
MDA-N = test system: MDA-N
NCI-H23 lung = test system: NCI-H23 lung
NCI/ADR-RES ovarian = test system: NCI/ADR-RES ovarian
PC-3 prostate = test system: PC-3 prostate
SK-MEL-2 melanoma = test system: SK-MEL-2 melanoma
T-47D breast = test system: T-47D breast

Compound: C[C@]12CCC(=O)C(O)=C1CCC2=O
- TGI (786-0 renal): > 100 µM
- TGI (A498 renal): > 100 µM
- TGI (A549 NSCLC): > 100 µM
- TGI (ACHN renal): > 100 µM
- TGI (CAKI-1 renal): > 100 µM
- TGI (CCRF-CEM leukemia): > 100 µM
- TGI (COLO 205 colon): > 100 µM
- TGI (DLD-1 colon): > 100 µM
- TGI (DMS 273 small cell lung): > 100 µM
- TGI (EKVX NSCLC): > 100 µM
- TGI (HCC-2998 colon): > 100 µM
- TGI (HCT-116 colon): > 100 µM
- TGI (HCT-15 colon): > 100 µM
- TGI (HL-60(TB) leukemia): > 100 µM
- TGI (HOP-18 NSCLC): > 100 µM
- TGI (HOP-62 NSCLC): > 100 µM
- TGI (HOP-92 NSCLC): > 100 µM
- TGI (HT29 colon): > 100 µM
- TGI (IGROV1 ovarian): > 100 µM
- TGI (KM12 colon): > 100 µM
- TGI (KM20L2 colon): > 100 µM
- TGI (LOX IMVI melanoma): > 100 µM
- TGI (LXFL 529 NSCLC): > 100 µM
- TGI (M14 melanoma): > 100 µM
- TGI (M19-MEL melanoma): > 100 µM
- TGI (MALME-3M melanoma): > 100 µM
- TGI (MOLT-4 leukemia): > 100 µM
- TGI (NCI-H226 lung): > 100 µM
- TGI (NCI-H460 lung): > 100 µM
- TGI (NCI-H522 lung): > 100 µM
- TGI (OVCAR-3 ovarian): > 100 µM
- TGI (OVCAR-4 ovarian): > 100 µM
- TGI (OVCAR-5 ovarian): > 100 µM
- TGI (OVCAR-8 ovarian): > 100 µM
- TGI (RPMI-8226 leukemia): > 100 µM
- TGI (RXF 393 renal): > 100 µM
- TGI (SF-268 CNS): > 100 µM
- TGI (SF-295 CNS): > 100 µM
- TGI (SF-539 CNS): > 100 µM
- TGI (SK-MEL-28 melanoma): > 100 µM
- TGI (SK-MEL-5 melanoma): > 100 µM
- TGI (SK-OV-3 ovarian): > 100 µM
- TGI (SN12C renal): > 100 µM
- TGI (SNB-19 CNS): > 100 µM
- TGI (SNB-75 CNS): > 100 µM
- TGI (SNB-78 CNS): > 100 µM
- TGI (SR leukemia): > 100 µM
- TGI (SW-620 colon): > 100 µM
- TGI (TK-10 renal): > 100 µM
- TGI (U251 CNS): > 100 µM
- TGI (UACC-257 melanoma): > 100 µM
- TGI (UACC-62 melanoma): > 100 µM
- TGI (UO-31 renal): > 100 µM

Compound: CN(C)CCNc1ccc2nnn3c4ccc(O)cc4c(=O)c1c23
- TGI (786-0 renal): 15.4 µM
- TGI (A498 renal): 12.1 µM
- TGI (A549 NSCLC): 13 µM
- TGI (ACHN renal): 26.1 µM
- TGI (BT-549 breast): 28.5 µM
- TGI (CAKI-1 renal): 20 µM
- TGI (CCRF-CEM leukemia): 32.9 µM
- TGI (COLO 205 colon): 18.2 µM
- TGI (DLD-1 colon): 22.7 µM
- TGI (DMS 114 small cell lung): 20.9 µM
- TGI (DU-145 prostate): 18.6 µM
- TGI (EKVX NSCLC): 18.5 µM
- TGI (HCC-2998 colon): 19.6 µM
- TGI (HCT-116 colon): 13.5 µM
- TGI (HCT-15 colon): 13.4 µM
- TGI (HL-60(TB) leukemia): 23.6 µM
- TGI (HOP-18 NSCLC): 50.5 µM
- TGI (HOP-62 NSCLC): 17.2 µM
- TGI (HOP-92 NSCLC): 26.5 µM
- TGI (HS 578T breast): 11.5 µM
- TGI (HT29 colon): 16.1 µM
- TGI (IGROV1 ovarian): 17.2 µM
- TGI (K-562 leukemia): > 37.7 µM
- TGI (KM12 colon): 13.5 µM
- TGI (KM20L2 colon): 22.7 µM
- TGI (LOX IMVI melanoma): 6.41 µM
- TGI (LXFL 529 NSCLC): 19 µM
- TGI (M14 melanoma): 21.2 µM
- TGI (MALME-3M melanoma): 19.5 µM
- TGI (MCF7 breast): 16 µM
- TGI (MDA-MB-231 breast): 4.81 µM
- TGI (MDA-MB-435): 17.1 µM
- TGI (MDA-N): 15 µM
- TGI (MOLT-4 leukemia): 9.56 µM
- TGI (NCI-H226 lung): 23.6 µM
- TGI (NCI-H23 lung): 17.3 µM
- TGI (NCI-H460 lung): 11.4 µM
- TGI (NCI-H522 lung): 18.8 µM
- TGI (NCI/ADR-RES ovarian): 12.6 µM
- TGI (OVCAR-3 ovarian): 27.8 µM
- TGI (OVCAR-4 ovarian): 9.63 µM
- TGI (OVCAR-5 ovarian): 19.9 µM
- TGI (OVCAR-8 ovarian): 16.8 µM
- TGI (PC-3 prostate): 12.1 µM
- TGI (RPMI-8226 leukemia): 24.6 µM
- TGI (RXF 393 renal): 14.3 µM
- TGI (SF-268 CNS): 20.7 µM
- TGI (SF-295 CNS): 15.3 µM
- TGI (SF-539 CNS): 15.6 µM
- TGI (SK-MEL-2 melanoma): 22.6 µM
- TGI (SK-MEL-28 melanoma): 23.4 µM
- TGI (SK-MEL-5 melanoma): 12.2 µM
- TGI (SK-OV-3 ovarian): 29.7 µM
- TGI (SN12C renal): 23.9 µM
- TGI (SNB-19 CNS): 31.8 µM
- TGI (SNB-75 CNS): 32.1 µM
- TGI (SNB-78 CNS): 31.7 µM
- TGI (SR leukemia): 16.4 µM
- TGI (SW-620 colon): 15.6 µM
- TGI (T-47D breast): 27.1 µM
- TGI (TK-10 renal): 31.9 µM
- TGI (U251 CNS): 16.2 µM
- TGI (UACC-257 melanoma): 22.2 µM
- TGI (UACC-62 melanoma): 19.7 µM
- TGI (UO-31 renal): 13.8 µM
